# Assays:
# TAS2R38 receptor [1] = molecular target: TAS2R38 receptor (Homo sapiens, UniProt P59533, A262V); test: Calcium flux assay in human PBMC (flow cytometry, Fluo-4 AM); conditions: AVI/AVI, 100 µM AITC
# TAS2R38 receptor [2] = molecular target: T1, TAS2R38 receptor (Homo sapiens, UniProt P59533, A49P/I296V); test: as above
# T1 sequence (P59533 1-333 A49P/I296V): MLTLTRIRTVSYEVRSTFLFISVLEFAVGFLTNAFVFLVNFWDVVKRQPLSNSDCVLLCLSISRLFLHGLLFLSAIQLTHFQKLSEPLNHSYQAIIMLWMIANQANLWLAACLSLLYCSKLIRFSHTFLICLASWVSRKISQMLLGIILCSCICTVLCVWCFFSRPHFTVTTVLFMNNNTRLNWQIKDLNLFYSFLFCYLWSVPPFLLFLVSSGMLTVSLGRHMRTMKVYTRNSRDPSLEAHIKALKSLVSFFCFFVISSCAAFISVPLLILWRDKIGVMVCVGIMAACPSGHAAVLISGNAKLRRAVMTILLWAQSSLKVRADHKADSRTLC
# TAS2R38 receptor [3] = test: as above; conditions: PAV/AVI
# [4] = test system: TNF-α, IL-1β, IL-2, IL-6, IL17-A, IL-10; test: Cytokine secretion of CD3/CD28 mAbs stimulated PBMC (MACSplex / ELISA); assay type: cell-based, human
# Experimental: PBMC (1x10^6/mL) cultured in RPMI 1640 medium supplemented with 10% heat-inactivated fetal calf serum, 2 mM L-glutamine, 100 U/ml penicillin/streptomycin were stimulated with 0.5 ng/ml CD3/CD28 MAbs and exposed to the test compounds. After 24 h, supernatants were collected and stored at -80°C until analysis using the human MACSplex cytokine 12-kit (Miltenyi Biotec GmbH, Bergisch Gladbach, Germany) according to manufacturer’s protocol to quantify cytokine secretion. Supernatants were also used for photometric quantification by the human TNF-alpha or IL-1β ELISA Ready-Set-Go kit from eBIoscience (Frankfurt, Germany) according to the manufacturer’s instructions.
# Figure 6 In […] PBMC, AITC triggers MAPK activation as well as TNF-α release in dependence of the TAS2R38 genotype. PBMC were exposed to AITC or 0.01% DMSO (SC) together with 0.5 ng/mL CD3/CD28 MAbs for 24h (A, B). Cytokine secretion was analyzed using the human MACSplex cytokine 12-kit or ELISA kits. Results are mean values + SD and given as fold of the solvent control. Significance of difference was determined compared to the respective SC as determined by one-way ANOVA, *p < 0.05, **p < 0.01.
# NO production = test: Nitric oxide detection by flow cytometry (DAF-FM) in PBMC; assay type: cell-based, human; conditions: for NO production increase: monocytes, 5h
# Experimental: PBMC (0.25x10^6) were suspended in DMEM medium and exposed to solvent control, AITC or 100 µM of the NO-donor SNAP (positive control) in 96-well plates for 30-270 min in a humidified incubator (5% CO2, 37°C). After that, cells were then loaded with 0.5 µM DAF-FM diacetate prepared in HBSS buffer for another 30 min. DAF-FM loading at this low concentration allows reducing the background fluorescence and improving the signal to noise ratio in a single cell ([34]). After incubation, the cells were washed twice with PBS, followed by 30 min. de-esterification of the intracellular diacetates in the dark at room temperature. Fluorescence signals (ex 488 nm, em 530± 30 nm) were monitored using a FACSCalibur™ flow cytometer. The median fluorescence intensity (MFI) of each sample was calculated using FlowJo software (Ashland, Oregon, USA). DAF-FM-DA has a detection limit of about 5 nM NO ([35]).
# Figure 3 AITC stimulates NO production and exerts bactericidal activity in dependence of the TAS2R38 haplotype. PBMC were isolated from AVI/AVI or PAV/PAV genotype subjects and (A) exposed to 0.01% DMSO (SC), AITC, the NO-donor SNAP (positive control), or the NO scavenger cPTIO for the indicated time points. Then, 0.5 µM DAF-FM diacetate was added for 30 min. Fluorescence signals (ex 488 nm, em 530± 30 nm) were monitored using a FACSCalibur™. The median fluorescence intensity (MFI) of each sample was calculated using FlowJo software (Ashland, Oregon, USA). A representative histogram of one PAV/PAV subject is shown on the top, (B) incubated with E. coli K-12 at MOI 0.5 and exposed to 0.01% DMSO (SC) or AITC for 120 min at 37°C. Cell membrane potential depolarization was determined by staining bacteria with 1 µg/ml DiBAC4(3) for 10 min, in the dark at room temperature. Representative scattergrams of E. coli K-12 and PBMC treated with E. coli K-12 are given. An FSC/SSC plot was first made and E. coli K-12 cells gated. The population was copied to a SSC/DiBAC4(3)-scatterplot identifying the percentage of depolarized bacteria. Bars are mean value + SD, *p < 0.05, **p < 0.01. Significance of difference was calculated relative to the respective control by one-way ANOVA. […]
# TAS2R38 receptor (Homo sapiens, UniProt P59533, A262V), sequence (P59533 whole entry A262V): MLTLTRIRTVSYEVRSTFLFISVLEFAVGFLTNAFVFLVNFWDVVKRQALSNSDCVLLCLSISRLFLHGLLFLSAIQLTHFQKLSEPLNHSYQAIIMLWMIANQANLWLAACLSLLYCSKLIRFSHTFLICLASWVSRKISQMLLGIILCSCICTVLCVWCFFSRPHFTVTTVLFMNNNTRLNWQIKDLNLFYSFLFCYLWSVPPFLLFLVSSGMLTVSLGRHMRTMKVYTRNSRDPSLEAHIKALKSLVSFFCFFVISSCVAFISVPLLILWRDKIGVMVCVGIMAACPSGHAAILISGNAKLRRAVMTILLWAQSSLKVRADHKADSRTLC
smiles,measurement,setting,value
"C=CCN=C=S [AITC, allyl isothiocyanate]",calcium influx,TAS2R38 receptor [1]; lymphocytes,24%
same,calcium flux (statistically significant),TAS2R38 receptor [1]; monocytes,20%
same,calcium influx,"TAS2R38 receptor [2]; PAV/PAV cells, 0.01 µM AITC (increase between 0.01 to 1 µM)",28%
same,calcium influx,"TAS2R38 receptor [2]; PAV/PAV cells, 1 µM AITC (increase between 0.01 to 1 µM)",35%
same,calcium influx,"TAS2R38 receptor [2]; PAV/PAV cells, 10 µM AITC (increase between 10-100 µM)",45%
same,calcium influx,"TAS2R38 receptor [2]; PAV/PAV cells, 100 µM AITC (increase between 10-100 µM)",72%
same,calcium influx,"TAS2R38 receptor [2]; lymphocytes, PAV/PAV, 1 µM AITC",25%
same,calcium flux (statistically significant),"TAS2R38 receptor [2]; monocytes, PAV/PAV, 0.01 µM AITC",22%
same,threshold concentration,"TAS2R38 receptor [2]; monocytes, calcium flux",10 nM
same,calcium influx,"TAS2R38 receptor [3]; lymphocytes, 100 µM AITC",21%
same,calcium flux (statistically significant),"TAS2R38 receptor [3]; monocytes, 10 µM AITC",18%
same,"modulation of IL-2, IL-6, IL17-A and IL-10",[4]; CD3/CD28 mAbs stimulated PBMC,not clearly genotype dependent
same,effect on TNF-α,"[4]; CD3/CD28 mAbs stimulated cells, AVI/AVI group, 24h",No effect
same,TNF-α secretion,"[4]; CD3/CD28 mAbs stimulated cells, PAV/PAV, 24h","Similar, but less strong effects"
same,IL-1β,"[4]; CD3/CD28 mAbs stimulated, PAV/PAV vs. AVI/AVI cells",differential inhibition
same,NO in monocyte cell population,"NO production; AITC ≥ 10 µM, 1h, PAV/PAV (not AVI/AVI)",insignificant increase
same,NO production in the lymphocyte population,"NO production; PAV/PAV vs AVI/AVI, NO only detected after 5h at 100 µM AITC",no differential regulation
same,NO production increase,"NO production; AVI/AVI, 100 µM AITC",41%
same,NO production increase,"NO production; PAV/PAV, 3 µM AITC",46%

# From article PMC8103899, “Allyl Isothiocyanate: A TAS2R38 Receptor-Dependent Immune Modulator at the Interface Between Personalized Medicine and Nutrition” (Frontiers in Immunology, 2021)
